Laboratory results as given in patent US20240407363A1 (priority 2021, published 2024).

Assays:
X. perforans GEV-485 = assay: In vitro MIC and MBC determination in nutrient broth / on NA plates; type: cell-based; settings: three trials
Method: X. perforans strain GEV-485, a copper-resistant strain, was used in this study to evaluate the antibacterial activity of Hx. Working cultures of GEV-485 were retrieved from −80° C. storage vials containing bacterial suspensions in 30% glycerol (v/v). Bacterial cells were taken from the storage, streaked on nutrient agar (NA; Difco™ Sparks, MD) plates and incubated for 48 h at 28° C. and single colonies were picked and streaked on NA plates to ensure bacterial purity for further cultures. NA amended with copper (II) sulfate pentahydrate (CuSO4·5H2O) (Fisher Scientific-Hampton, NH) at 20 ppm, was used as copper tolerance selective agent. To prepare the bacterial inoculum, a single bacterial colony was streaked on NA and incubated for 24 h at 28° C. From those plates, loops of bacterial cells were collected and resuspended in SDW amended with 0.01 M MgSO4. The bacterial concentration was adjusted to ˜5.0×10^8 colony-forming units (CFU)/mL based on an optical density (OD) of 0.3 at 600 nm. The in vitro studies were conducted to determine the minimum inhibitory concentration (MIC), minimum bactericidal concentration (MBC), and the antibacterial activity at different time points.
To determine MIC of Hx against X. perforans GEV-485, individual 96-well plates containing 100 μL of nutrient broth (NB) with varied copper and Hx concentrations were inoculated with 100 μL of the GEV-485 suspension at the concentration of 1.0×10^8 CFU/mL. The final chemical concentrations on the wells were 16, 32, 64, 128, 256, 512, 1024, 2048, 4096 and 8192 mg/L. Three wells with 100 µL of NB and 100 μL of the bacterial suspension were the controls. Solutions in all wells were thoroughly mixed by pipetting. The plate was, then, covered with a lid and incubated under stationary conditions at 28° C. for 24 h. The value of MIC for Hx and copper was determined as the minimum concentration (mg/L), at which the bacterial growth was inhibited (the solution was clear), among all tested concentrations of each chemical. After MIC was determined, an aliquot of 20 μL of the solution from the wells that gave a clear solution was plated on NA. […] The MBC was determined as the minimum concentration, at which >99.9% of the initial bacterial populations were killed and no visible growth of the bacterium was observed on the NA plates among all tested concentrations of antimicrobial agents. The experiment was repeated two more times, with three replications for each treatment.

[1] = test system: X. perforans (a copper-resistant strain QL); assay: Greenhouse experiment, bacterial spot of tomato (cv. FL 47), compounds sprayed approx. 2 h before inoculation; type: in vivo; settings: for BS1 average disease severity of bacterial spot on two mostly infected leaves / WHOLE1 disease severity over the whole plant: 10 d after inoculation; for BS2 average disease severity of bacterial spot on two mostly infected leaves / WHOLE2 disease severity over the whole plant: 12 d after inoculation; for BS3 average disease severity of bacterial spot on two mostly infected leaves / WHOLE3 disease severity over the whole plant: 14 d after inoculation; for AUDPC_BS: two mostly infected leaves, 10, 12, 14 days after inoculation; for AUDPC_WHOLE: whole plant, 10, 12, 14 days after inoculation
Method: Tomato (cv. FL 47) was seeded in the greenhouse (the highest temperature was set at 82° F.) and the seedlings with two fully expanded leaves (about 3 weeks after seeding) were transplanted to soilless mix in 6-inch pots. One week after transplanting, treatments with the compounds at the test concentrations were sprayed onto plants until runoff approx. 2 h before inoculation with X. perforans. Untreated plants were used as the control (CK). There were five plants in each treatment and one plant served as one replicate. All plants were inoculated by spraying a bacterial suspension of X. perforans (a copper-resistant strain QL) at 1×10^8 CFU/ml until runoff. Inoculated plants were incubated in a moist chamber overnight (approx. 18 h) to ensure and promote infection by X. perforans. Then the inoculated plants were taken out and placed randomly on a bench inside the greenhouse for disease development. Plants were sprayed with mist periodically to stimulate disease development. When lesions on the leaves were apparent, the percentage of leaf area covered by the lesions, either for the two mostly infected leaves or the whole plant, was rated and recorded for each treatment. Disease rating was conducted at least two times. The area under the disease progress curve (AUDPC) was calculated for each treatment to reflect the disease development over a period if disease rating was carried out three times or more.

Xanthomonas perforans = assay: Field trials on piperidine and pyrrolidine, bacterial spot of tomato, foliar spray; type: in vivo; settings: for AUDPC / BS last rating of bacterial spot severity / YIELD: foliar spray at the concentration given with each treatment; for increase of marketable tomato fruit yield compared to the untreated control (CK) / bacterial spot disease severity and AUDPC compared to the untreated control (CK): pyrrolidine at 128 mg/ml; for bacterial spot disease severity and AUDPC compared to the untreated control (CK): foliar sprays, both independent trials, 2021-2022
Description: Tomato seedlings were transplanted in fall for the first trial (trial 1) and spring for the second trial (trial 2). Treatments were started about two weeks after transplanting following weekly applications for a total of eight weeks. Tomato plants were inoculated with the pathogen Xanthomonas perforans (1-5×10^6 cfu/ml) the following day in the afternoon after the third treatment. Disease severity was rated weekly when bacterial spot symptoms were observed, and area under the disease progress curve (AUDPC) was calculated. Tomato fruit were harvested two to three times for each trial and graded according to the USDA standard. Total fruit yield in each treatment and the untreated control (CK) was subjected to statistical analysis using SAS (version 9.2, SAS Institute Inc., Cary, NC, USA). Disease severity of last rating and AUDPC from each trial were analyzed and presented.
All treatments were applied through a foliar spray at specified concentrations. Piperidine and pyrrolidine were evaluated in two independent trials. Tomato cultivar was ‘Red bounty’ in trial 1, and ‘Varsity’ in trial 2.

[2] = first value named of two independent trials, piperidine at 64 mg/ml
[3] = second value named of two independent trials, piperidine at 64 mg/ml

Compound | BS1 average disease severity of bacterial spot on two mostly infected leaves ([1]; 64 mg/L = 64 ppm) | WHOLE1 disease severity over the whole plant ([1]; 64 mg/L = 64 ppm) | BS2 average disease severity of bacterial spot on two mostly infected leaves ([1]; 64 mg/L = 64 ppm) | WHOLE2 disease severity over the whole plant ([1]; 64 mg/L = 64 ppm) | BS3 average disease severity of bacterial spot on two mostly infected leaves ([1]; 64 mg/L = 64 ppm) | WHOLE3 disease severity over the whole plant ([1]; 64 mg/L = 64 ppm) | AUDPC_BS ([1]; 64 mg/L = 64 ppm) | AUDPC_WHOLE ([1]; 64 mg/L = 64 ppm) | AUDPC (Xanthomonas perforans; Trial 1, cv. Red bounty) | BS last rating of bacterial spot severity (Xanthomonas perforans; Trial 1, cv. Red bounty) | YIELD (Xanthomonas perforans; Trial 1, cv. Red bounty) | AUDPC (Xanthomonas perforans; Trial 2, cv. Varsity) | BS last rating of bacterial spot severity (Xanthomonas perforans; Trial 2, cv. Varsity) | YIELD (Xanthomonas perforans; Trial 2, cv. Varsity) | increase of marketable tomato fruit yield compared to the untreated control (CK) (Xanthomonas perforans; [2]) | bacterial spot disease severity and AUDPC compared to the untreated control (CK) (Xanthomonas perforans; piperidine at 64 mg/ml) | increase of marketable tomato fruit yield compared to the untreated control (CK) (Xanthomonas perforans; [3]) | also measured
O=S(=O)([O-])[O-].[Cu+2] [Copper (CuSO4), CuSO4, reference compound] |  |  |  |  |  |  |  |  |  |  |  |  |  |  |  |  |  | MIC (X. perforans GEV-485; 28° C. for 24 h, copper-resistant strain): 1024 µg/mL; MBC (X. perforans GEV-485; >99.9% of initial bacterial populations killed, no visible growth on NA): 2048 µg/mL
C1CCNCC1 [Piperidine, piperidine] | 30.0 a | 10.0 ab | 36.0 a | 28.0 a | 54.0 a | 32.0 a | 546.0 a | 343.0 a | 495.9 bc | 34.6 b % | 3.88 a kg/plant | 394.9 b | 23.8 b % | 4.38 a kg/plant | 15.5% | significantly (P<0.05) reduced bacterial spot disease severity at the last rating and the overall disease progress | 17.6% | BS1 average disease severity of bacterial spot on two mostly infected leaves ([1]; 32 mg/L = 32 ppm): 24.5 a; WHOLE1 disease severity over the whole plant ([1]; 32 mg/L = 32 ppm): 14.2 a; BS2 average disease severity of bacterial spot on two mostly infected leaves ([1]; 32 mg/L = 32 ppm): 33.0 a; WHOLE2 disease severity over the whole plant ([1]; 32 mg/L = 32 ppm): 26.0 ab; BS3 average disease severity of bacterial spot on two mostly infected leaves ([1]; 32 mg/L = 32 ppm): 35.0 b; WHOLE3 disease severity over the whole plant ([1]; 32 mg/L = 32 ppm): 26.0 ab; bacterial spot disease compared to CK ([1]; at 32 and 64 mg/L alone): failed to reduce the disease; AUDPC_BS ([1]; 32 mg/L = 32 ppm): 439.3 b; AUDPC_WHOLE ([1]; 32 mg/L = 32 ppm): 322.7 ab; effect on disease reduction compared to ManKocide at the label rate of 2.1 mg/ml (Xanthomonas perforans; piperidine at 64 mg/ml, foliar spray): even better than ManKocide®
pyrrolidine | 14.0 bc | 5.1 bc | 15.2 bc | 7.5 cde | 17.5 c | 5.3 c | 219.6 c | 88.7 days | 466.1 c | 31.7 b % | 3.95 a kg/plant | 401.8 b | 23.1 b % | 3.99 a kg/plant | 15.9% | significantly (P<0.05) reduced bacterial spot disease severity at the last rating and the overall disease progress | 5.6% | BS1 average disease severity of bacterial spot on two mostly infected leaves ([1]; 128 mg/L = 128 ppm): 7.5 c; WHOLE1 disease severity over the whole plant ([1]; 128 mg/L = 128 ppm): 1.5 c; BS2 average disease severity of bacterial spot on two mostly infected leaves ([1]; 128 mg/L = 128 ppm): 9.0 c; WHOLE2 disease severity over the whole plant ([1]; 128 mg/L = 128 ppm): 1.8 de; BS3 average disease severity of bacterial spot on two mostly infected leaves ([1]; 128 mg/L = 128 ppm): 11.0 c; WHOLE3 disease severity over the whole plant ([1]; 128 mg/L = 128 ppm): 3.8 c; bacterial spot disease compared to the untreated control (CK) ([1]; at 64 and 128 mg/L each): significantly (P<0.05) reduced bacterial spot disease; AUDPC_BS ([1]; 128 mg/L = 128 ppm): 127.8 cd; AUDPC_WHOLE ([1]; 128 mg/L = 128 ppm): 31.2 days
